Tests used:
Full length Human HDAC1 = target: T1, Full length Human HDAC1 (Homo sapiens, UniProt Q13547); assay: HDAC1 enzymatic assay (deacetylation of FAM-labeled peptide substrate, microfluidic electrophoresis); type: biochemical; conditions: recombinant enzymatic assay
T1 construct: Full length Human HDAC1; His (C); FLAG (C); host or cells: baculovirus expression system
Method: (§1) HDAC2 and HDAC1 Enzymatic Assay (HDAC2 and HDAC1 IC50 Data)
(§2) The following describes an assay protocol for measuring the deacetylation of a peptide substrate by HDAC2 or HDAC1.
(§3) HD AC protein composition and respective substrate peptides are summarized below.
(§4) HD AC reactions are assembled in 384 well plates (Greiner) in a total volume of 20 μL as following:
(§5) HDAC proteins are pre-diluted in the assay buffer comprising: 100 mM HEPES, pH 7.5, 0.1% BSA, 0.01% Triton X-100, 25 mM KCl and dispensed into 384 well plate (10 uL per well).
(§6) Test compounds are serially pre-diluted in DMSO and added to the protein samples by acoustic dispensing (Labcyte Echo). Concentration of DMSO is equalized to 1% in all samples.
(§7) Control samples (0%-inhibition in the absence of inhibitor, DMSO only) and 100%-inhibition (in the absence of enzyme) are assembled in replicates of four and used to calculate the %-inhibition in the presence of compounds.
(§8) At this step compounds can be pre-incubated with enzyme if desired.
(§9) The reactions are initiated by addition of 10 uL of the FAM-labeled substrate peptide pre-diluted in the same assay buffer. Final concentration of substrate peptide is 1 uM (HDAC1-2).
(§10) The reactions are allowed to proceed at room temperature. Following incubation, the reactions are quenched by addition of 50 μL of termination buffer (100 mM HEPES, pH7.5, 0.01% Triton X-100, 0.1% SDS). Terminated plates are analyzed on a microfluidic electrophoresis instrument (Caliper LabChip® 3000, Caliper Life Sciences/Perkin Elmer) which enables electrophoretic separation of de-acetylated product from acetylated substrate. A change in the relative intensity of the peptide substrate and product is the parameter measured. Activity in each test sample is determined as the product to sum ratio (PSR): P/(S+P), where P is the peak height of the product, and S is the peak height of the substrate. Percent inhibition (Pinh) is determined using the following equation: Pinh=(PSR0% inh−PSRcompound)/(PSR0% inh−PSR100% inh)*100, in which: PSRcompound is the product/sum ratio in the presence of compound, PSR0% inh is the product/sum ratio in the absence of compound and the PSR100% inh is the product/sum ratio in the absence of the enzyme. To determine IC50 of compounds (50%-inhibition) the %-inh data (Pinh versus compound concentration) are fit by a 4 parameter sigmoid dose-response model using XLfit software (IDBS).
(§11) In the table, “A” indicates a IC50 value of less than 0.5 μM; “B” a IC50 value from 0.5 μM to 1.0 μM; “C” a IC50 value of greater than 1.0 μM and less than or equal to 2.0 μM; and “D” indicates an IC50 value of greater than 2.0 μM. NT=Not Tested.

HDAC2 = target: T2, HDAC2 (Homo sapiens, UniProt Q92769); assay: HDAC2 Enzymatic Inhibition Assay in SH-SY5Y Cell Lysate with an Exogenous Substrate (HDAC-Glo 2); type: cell-based; conditions: SH-SY5Y cells, five hours incubation, Table 3, class symbols
T2 construct: host or cells: SH-SY5Y cells
Method: HDAC2 Enzymatic Inhibition Assay in SH-SY5Y Cell Lysate with an Exogenous Substrate
SH-SY5Y cells (Sigma) were cultured in Eagle's Modified Essential Medium supplemented with 10% fetal bovine serum and pen/strep. Twenty-four hours prior to compound dosing 20 uL of cells were plated in white 384 well plates at a density of 1,500 cells/well. Compounds were serially diluted in neat DMSO and then diluted 1:100 v/v into media without FBS and mixed. Media was removed from the plated cells and the diluted compounds in serum free media (1% v/v final DMSO) were added and incubated at 37° C. for five hours. Ten uL of HDAC-Glo 2 reagent with 0.1% Triton X-100 was then added, the plate was mixed and allowed to develop at room temperature for 100 minutes. Plates were then read with a Spectramax LMax luminometer employing a 0.4 s integration time. Dose response curves were constructed with normalized data where CI-994 at 100 uM was defined as 100% inhibition and DMSO alone as 0% inhibition.
as §11

Full length Human HDAC2 = target: T3, Full length Human HDAC2 (Homo sapiens, UniProt Q92769); assay: HDAC2 enzymatic assay (deacetylation of FAM-labeled peptide substrate, microfluidic electrophoresis); type: biochemical; conditions: recombinant enzymatic assay
T3 construct: Full length Human HDAC2; FLAG (C); host or cells: baculovirus expression system
Method: as §1, §2, §3, §4, §5, §6, §7, §8, §9, §10, §11

T1 sequence (Q13547 whole entry): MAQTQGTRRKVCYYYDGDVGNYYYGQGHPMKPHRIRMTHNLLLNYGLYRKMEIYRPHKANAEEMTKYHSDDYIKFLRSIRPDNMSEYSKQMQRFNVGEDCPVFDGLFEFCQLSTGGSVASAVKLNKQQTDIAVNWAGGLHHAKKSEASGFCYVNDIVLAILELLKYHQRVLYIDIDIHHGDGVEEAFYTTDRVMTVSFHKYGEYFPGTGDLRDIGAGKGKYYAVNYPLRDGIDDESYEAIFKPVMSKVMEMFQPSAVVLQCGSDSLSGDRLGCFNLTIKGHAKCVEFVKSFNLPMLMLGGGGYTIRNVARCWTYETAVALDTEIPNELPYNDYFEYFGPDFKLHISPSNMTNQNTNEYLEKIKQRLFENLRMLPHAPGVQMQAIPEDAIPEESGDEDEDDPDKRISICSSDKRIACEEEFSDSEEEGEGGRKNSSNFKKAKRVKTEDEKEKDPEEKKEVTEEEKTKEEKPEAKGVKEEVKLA
T2 sequence (Q92769 whole entry): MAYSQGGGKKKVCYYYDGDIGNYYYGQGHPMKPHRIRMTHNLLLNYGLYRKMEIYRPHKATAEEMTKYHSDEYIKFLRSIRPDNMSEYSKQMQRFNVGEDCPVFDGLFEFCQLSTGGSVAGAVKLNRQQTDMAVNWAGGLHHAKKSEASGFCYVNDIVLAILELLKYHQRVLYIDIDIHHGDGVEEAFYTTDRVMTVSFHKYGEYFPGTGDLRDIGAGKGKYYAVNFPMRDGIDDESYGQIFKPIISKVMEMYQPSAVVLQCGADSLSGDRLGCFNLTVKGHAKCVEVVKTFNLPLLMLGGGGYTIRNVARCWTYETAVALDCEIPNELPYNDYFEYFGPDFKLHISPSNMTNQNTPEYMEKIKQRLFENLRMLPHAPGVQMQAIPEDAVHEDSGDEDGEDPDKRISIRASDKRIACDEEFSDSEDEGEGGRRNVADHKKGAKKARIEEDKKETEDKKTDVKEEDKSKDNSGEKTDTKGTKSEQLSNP
T3 sequence (Q92769 whole entry): as above

Compound	IC50 (Full length Human HDAC1; Table 2, class symbols)	IC50 (HDAC2)	IC50 (Full length Human HDAC2; Table 2, class symbols)	IC50 (Full length Human HDAC1; Table 2, numeric value)	IC50 (Full length Human HDAC2; Table 2, numeric value)
Cc1ccc(CC2CN(C(=O)Nc3nc(-c4ccc(F)cc4F)ccc3N)C2)nn1 [Compound 24]	500 to 1000 nM	< 500 nM	1000 to 2000 nM	–	–
Nc1ccc(-c2ccccc2F)nc1NC(=O)N1CC(Cc2ncc(F)cn2)C1 [Compound 26]	500 to 1000 nM	1000 to 2000 nM	500 to 1000 nM	–	–
Nc1ccc(-c2ccc(F)cc2)nc1NC(=O)N1CC(Cc2ncc(F)cn2)C1 [Compound 27]	< 500 nM	500 to 1000 nM	< 500 nM	–	–
Nc1ccc(-c2ccc(F)cc2F)nc1NC(=O)N1CC(Cn2cccn2)C1 [Compound 30]	1000 to 2000 nM	1000 to 2000 nM	1000 to 2000 nM	–	–
Nc1ccc(-c2ccc(F)cc2F)nc1NC(=O)N1CC(Cn2ccnc2)C1 [Compound 31]	> 2000 nM	> 2000 nM	> 2000 nM	–	–
Nc1ccc(-c2ccc(F)cc2F)nc1NC(=O)N1CC(C(F)(F)c2ncccn2)C1 [Compound 33]	500 to 1000 nM	1000 to 2000 nM	500 to 1000 nM	–	–
Nc1ccc(-c2ccc(F)cc2F)nc1NC(=O)N1CC(C(F)(F)c2ncc(F)cn2)C1 [Compound 34]	500 to 1000 nM	> 2000 nM	500 to 1000 nM	–	–
Nc1ccc(-c2ccccc2F)nc1NC(=O)N1CC(C(F)(F)c2ncccn2)C1 [Compound 35]	1000 to 2000 nM	500 to 1000 nM	500 to 1000 nM	–	–
Nc1ccc(-c2ccc(F)cc2)nc1NC(=O)N1CC(C(F)(F)c2ncccn2)C1 [Compound 36]	< 500 nM	1000 to 2000 nM	< 500 nM	–	–
Nc1ccc(-c2ccccc2F)nc1NC(=O)N1CC(C(F)(F)c2ncc(F)cn2)C1 [Compound 37]	500 to 1000 nM	500 to 1000 nM	500 to 1000 nM	–	–
Nc1ccc(-c2ccc(F)cc2)nc1NC(=O)N1CC(C(F)(F)c2ncc(F)cn2)C1 [Compound 38]	< 500 nM	500 to 1000 nM	< 500 nM	–	–
Nc1ccc(-c2ccc(F)cc2F)nc1NC(=O)N1CC(C(F)c2ncccn2)C1 (stereo not drawn) [Compound 40]	500 to 1000 nM	500 to 1000 nM	1000 to 2000 nM	–	–
CC(c1ncccn1)C1CN(C(=O)Nc2nc(-c3ccc(F)cc3F)ccc2N)C1 (stereo not drawn) [Compound 42]	500 to 1000 nM	< 500 nM	1000 to 2000 nM	–	–
Nc1ccc(-c2ccc(F)cc2F)nc1NC(=O)N1CC(CCc2ccccn2)C1 [Compound 43]	500 to 1000 nM	> 2000 nM	> 2000 nM	–	–
Nc1ccc(-c2ccc(F)cc2F)nc1NC(=O)N1CC(CCc2ncccn2)C1 [Compound 44]	> 2000 nM	> 2000 nM	> 2000 nM	–	–
Cc1nnc(CC2CN(C(=O)Nc3nc(-c4ccc(F)cc4F)ccc3N)C2)s1 [Compound 45]	500 to 1000 nM	500 to 1000 nM	1000 to 2000 nM	–	–
Nc1ccc(-c2ccc(F)cc2F)nc1NC(=O)N1CC(Cc2nnc(C(F)(F)F)s2)C1 [Compound 46]	1000 to 2000 nM	> 2000 nM	1000 to 2000 nM	–	–
Cn1ccnc1CC1CN(C(=O)Nc2nc(-c3ccc(F)cc3F)ccc2N)C1 [Compound 47]	500 to 1000 nM	1000 to 2000 nM	1000 to 2000 nM	–	–
CC(c1ncccn1)C1CN(C(=O)Nc2nc(-c3ccc(F)cc3)ccc2N)C1 (stereo not drawn) [Compound 57]	< 500 nM	1000 to 2000 nM	500 to 1000 nM	–	–
Nc1ccc(-c2ccc(F)cc2F)nc1NC(=O)N1CC(Oc2ncccn2)C1 [Compound 59]	< 500 nM	> 2000 nM	500 to 1000 nM	–	–
Nc1ccc(-c2ccc(F)s2)nc1NC(=O)N1CC(Cc2ncc(F)cn2)C1 [Compound 61]	< 500 nM	1000 to 2000 nM	500 to 1000 nM	–	–

Compound	IC50 (Full length Human HDAC1; Table 2, class symbols)	IC50 (HDAC2)	IC50 (Full length Human HDAC2; Table 2, class symbols)	IC50 (Full length Human HDAC1; Table 2, numeric value)	IC50 (Full length Human HDAC2; Table 2, numeric value)
Nc1ccc(-c2ccc(F)cc2)nc1NC(=O)N1CC(Cc2ncccn2)C1 [Compound 64]	< 500 nM	500 to 1000 nM	1000 to 2000 nM	–	–
Cc1cnc(CC2CN(C(=O)Nc3nc(-c4ccc(F)cc4)ccc3N)C2)nc1 [Compound 65]	< 500 nM	500 to 1000 nM	500 to 1000 nM	–	–
Nc1ccc(-c2ccc(F)s2)nc1NC(=O)N1CC(Cc2ncccn2)C1 [Compound 66]	< 500 nM	1000 to 2000 nM	500 to 1000 nM	–	–
Nc1ccc(-c2cccs2)nc1NC(=O)N1CC(Cc2ncccn2)C1 [Compound 68]	< 500 nM	500 to 1000 nM	1000 to 2000 nM	–	–
Nc1ccc(-c2cccs2)nc1NC(=O)N1CC(Cc2ncc(F)cn2)C1 [Compound 69]	< 500 nM	1000 to 2000 nM	1000 to 2000 nM	–	–
Nc1ccc(-c2cccs2)nc1NC(=O)N1CC(C(F)(F)c2ncccn2)C1 [Compound 70]	< 500 nM	1000 to 2000 nM	500 to 1000 nM	–	–
Cn1ccnc1CC1CN(C(=O)Nc2nc(-c3ccc(F)cc3)ccc2N)C1 [Compound 71]	500 to 1000 nM	500 to 1000 nM	> 2000 nM	–	–
Cc1ccnc(CC2CN(C(=O)Nc3nc(-c4ccc(F)cc4)ccc3N)C2)n1 [Compound 72]	< 500 nM	1000 to 2000 nM	500 to 1000 nM	–	–
Nc1ccc(-c2ccc(F)cc2)nc1NC(=O)N1CC(Cn2cccn2)C1 [Compound 73]	500 to 1000 nM	1000 to 2000 nM	1000 to 2000 nM	–	–
Nc1ccc(-c2ccc(F)cc2)nc1NC(=O)N1CC(Cc2ccccn2)C1 [Compound 74]	< 500 nM	1000 to 2000 nM	500 to 1000 nM	–	–
Nc1ccc(-c2ccc(F)cc2)nc1NC(=O)N1CC(Cc2ncc(C(F)F)cn2)C1 [Compound 76]	< 500 nM	1000 to 2000 nM	500 to 1000 nM	–	–
Nc1ccc(-c2ccc(F)cc2)nc1NC(=O)N1CC(Cc2ccc(F)cn2)C1 [Compound 77]	< 500 nM	> 2000 nM	1000 to 2000 nM	–	–
Nc1ccc(-c2ccc(F)cc2)nc1NC(=O)N1CC(Cc2cnc(C(F)(F)F)nc2)C1 [Compound 78]	> 2000 nM	> 2000 nM	> 2000 nM	–	–
Cc1cccc(CC2CN(C(=O)Nc3nc(-c4ccc(F)cc4)ccc3N)C2)n1 [Compound 79]	500 to 1000 nM	> 2000 nM	1000 to 2000 nM	–	–
Cc1ncc(CC2CN(C(=O)Nc3nc(-c4ccc(F)cc4)ccc3N)C2)cn1 [Compound 80]	500 to 1000 nM	1000 to 2000 nM	1000 to 2000 nM	–	–
CC(F)(F)c1cnc(CC2CN(C(=O)Nc3nc(-c4ccc(F)cc4)ccc3N)C2)nc1 [Compound 81]	< 500 nM	> 2000 nM	500 to 1000 nM	–	–
COCc1cnc(CC2CN(C(=O)Nc3nc(-c4ccc(F)cc4)ccc3N)C2)nc1 [Compound 82]	< 500 nM	1000 to 2000 nM	500 to 1000 nM	–	–
COCc1ccc(CC2CN(C(=O)Nc3nc(-c4ccc(F)cc4)ccc3N)C2)nc1 [Compound 83]	< 500 nM	1000 to 2000 nM	500 to 1000 nM	–	–
Nc1ccc(-c2ccc(F)cc2)nc1NC(=O)N1CC(Cc2ncc(C(F)(F)F)cn2)C1 [Compound 84]	–	> 2000 nM	–	346 nM	1190 nM
Cn1ccnc1CC1(F)CN(C(=O)Nc2nc(-c3ccc(F)cc3)ccc2N)C1 [Compound 86]	1000 to 2000 nM	1000 to 2000 nM	> 2000 nM	–	–
COC1(Cc2nccn2C)CN(C(=O)Nc2nc(-c3ccc(F)cc3)ccc2N)C1 [Compound 87]	> 2000 nM	1000 to 2000 nM	> 2000 nM	–	–

Source: patent US20210276977A1, “BICYCLIC INHIBITORS OF HISTONE DEACETYLASE” (Alkermes, Inc., priority 2018, published 2021)
